Measurements: patent publication US20150197550A1 (UNIVERSITY OF ULSTER, priority 2012, published 2015)
Numbered stars: 1 amine (or outer) side, 2 acyl side, 3 side chain; on linkers, the order of the positions; unused ones are H or OH. Square brackets hold non-standard residues; d marks the D form. Side chains are listed from the residue outwards. Peptide text beside a SMILES is read from it. * marks the point of attachment. γGlu = O=C(O)[C@H](CCC(=O)[*:2])N[*:1]; Palmitoyl = CCCCCCCCCCCCCCCC(=O)*

Columns and labels:
[1] = human, in vivo; cited from earlier work
[2] = Stability on incubation with mouse plasma for 8 h (RP-HPLC peak height); assay type: in vitro ADME; settings: mouse, plasma
Method: The samples were then separated on RP-HPLC and the peak height compared to the value at time=0 hours.

Compound	half-life [1]	metabolised at 8 h [2]
Glucagon-like peptide-1 [GLP-1]	less than two	
CSCC[C@H](NC(=O)[C@H](Cc1ccc(O)cc1)NC(=O)[C@H](CCCCN)NC(=O)[C@H](CO)NC(=O)[C@H](Cc1ccc(O)cc1)NC(=O)[C@H](CC(=O)O)NC(=O)[C@H](CO)NC(=O)[C@@H](NC(=O)[C@H](Cc1ccccc1)NC(=O)[C@@H](NC(=O)CNC(=O)[C@H](CCC(=O)O)NC(=O)[C@@H](C)NC(=O)[C@@H](N)Cc1c[nH]cn1)[C@@H](C)O)[C@@H](C)O)C(=O)N[C@@H](CC(=O)O)C(=O)N[C@@H](CC(N)=O)C(=O)N[C@@H](CCCNC(=N)N)C(=O)N[C@@H](CCCNC(=N)N)C(=O)N[C@@H](C)C(=O)N[C@@H](CCCCN)C(=O)N[C@@H](CC(=O)O)C(=O)N[C@@H](Cc1ccccc1)C(=O)N[C@H](C(=O)N[C@@H](CCC(N)=O)C(=O)N[C@@H](Cc1c[nH]c2ccccc12)C(=O)N[C@@H](CC(C)C)C(=O)N[C@@H](CCSC)C(=O)N[C@@H](CC(N)=O)C(=O)N[C@H](C(=O)N1CCC[C@H]1C(=O)N[C@@H](CO)C(=O)N[C@@H](CO)C(=O)NCC(=O)N[C@@H](C)C(=O)N1CCC[C@H]1C(=O)N1CCC[C@H]1C(=O)N1CCC[C@H]1C(=O)N[C@@H](CO)C(N)=O)[C@@H](C)O)C(C)C [(D-A^2) dogfish glucagon exendin, (D-A^2) dogfish glucagon exendin end] (H-H[dA]EGTFTSDYSKYMDNRRAKDFVQWLMNTPSSGAPPPS-NH2; N-terminus assumed)		18.3%
CCCCCCCCCCCCCCCC(=O)N[C@@H](CCC(=O)NCCCC[C@H](NC(=O)[C@@H](NC(=O)[C@H](CC(N)=O)NC(=O)[C@H](CCSC)NC(=O)[C@H](CC(C)C)NC(=O)[C@H](Cc1c[nH]c2ccccc12)NC(=O)[C@H](CCC(N)=O)NC(=O)[C@@H](NC(=O)[C@H](Cc1ccccc1)NC(=O)[C@H](CC(=O)O)NC(=O)[C@H](CCCCN)NC(=O)[C@H](C)NC(=O)[C@H](CCCNC(=N)N)NC(=O)[C@H](CCCNC(=N)N)NC(=O)[C@H](CC(N)=O)NC(=O)[C@H](CC(=O)O)NC(=O)[C@H](CCSC)NC(=O)[C@H](Cc1ccc(O)cc1)NC(=O)[C@H](CCCCN)NC(=O)[C@H](CO)NC(=O)[C@H](Cc1ccc(O)cc1)NC(=O)[C@H](CC(=O)O)NC(=O)[C@H](CO)NC(=O)[C@@H](NC(=O)[C@H](Cc1ccccc1)NC(=O)[C@@H](NC(=O)CNC(=O)[C@H](CCC(=O)O)NC(=O)[C@@H](C)NC(=O)[C@@H](N)Cc1c[nH]cn1)[C@@H](C)O)[C@@H](C)O)C(C)C)[C@@H](C)O)C(=O)O)C(=O)O [(D-A^2) dogfish glucagon Lys^30-γ-Glutamyl-PAL] (H-H[dA]EGTFTSDYSKYMDNRRAKDFVQWLMNTK([γGlu-Palmitoyl])-OH; N-terminus and C-terminus assumed)		11.6%
